Test results taken from ChEMBL document CHEMBL1201862, “PubChem BioAssay data set” (2004).
Calls of active or inactive are those of the source.

Experiments:
[1] = molecular target: Albumin (Bos taurus, UniProt P02769); test: Counterscreen for inhibitors of T-cell receptor (TCR)-CD3 interaction: Fluorescence-based biochemical high throughput dose response assay to identify inhibitors of T-cell receptor (TCR)-CD3 interaction using a TAMRA-labeled BSA probe.; format: functional
[2] = molecular target: Large T antigen (Simian virus 40, UniProt P03070); format: functional, Betapolyomavirus macacae;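 note: Confirmatory-stage PubChem screen for compounds that inhibit SV40 T antigen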
Large T antigen, sequence (P03070 whole entry): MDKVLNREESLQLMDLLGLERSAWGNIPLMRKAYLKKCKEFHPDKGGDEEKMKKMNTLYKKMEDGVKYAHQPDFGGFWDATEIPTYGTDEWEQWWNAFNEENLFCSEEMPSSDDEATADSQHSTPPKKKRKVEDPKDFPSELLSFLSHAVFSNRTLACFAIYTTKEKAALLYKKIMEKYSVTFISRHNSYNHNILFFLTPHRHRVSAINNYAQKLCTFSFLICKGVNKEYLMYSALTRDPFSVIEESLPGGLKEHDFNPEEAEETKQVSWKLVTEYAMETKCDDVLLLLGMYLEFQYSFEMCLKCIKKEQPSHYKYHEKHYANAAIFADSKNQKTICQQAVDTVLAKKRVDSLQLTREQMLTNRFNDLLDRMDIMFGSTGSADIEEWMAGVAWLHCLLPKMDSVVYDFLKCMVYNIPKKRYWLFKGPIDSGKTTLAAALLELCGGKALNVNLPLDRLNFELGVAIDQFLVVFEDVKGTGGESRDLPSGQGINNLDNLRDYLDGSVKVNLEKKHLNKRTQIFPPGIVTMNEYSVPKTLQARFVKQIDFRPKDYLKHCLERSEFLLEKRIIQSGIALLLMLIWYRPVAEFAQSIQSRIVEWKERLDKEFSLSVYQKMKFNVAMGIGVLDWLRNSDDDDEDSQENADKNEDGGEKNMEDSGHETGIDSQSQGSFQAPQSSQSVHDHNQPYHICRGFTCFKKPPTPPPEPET

[3] = molecular target: T1, Histone-lysine N-methyltransferase NSD2 (Homo sapiens, UniProt O96028); format: biochemical
T1 sequence (O96028 whole entry): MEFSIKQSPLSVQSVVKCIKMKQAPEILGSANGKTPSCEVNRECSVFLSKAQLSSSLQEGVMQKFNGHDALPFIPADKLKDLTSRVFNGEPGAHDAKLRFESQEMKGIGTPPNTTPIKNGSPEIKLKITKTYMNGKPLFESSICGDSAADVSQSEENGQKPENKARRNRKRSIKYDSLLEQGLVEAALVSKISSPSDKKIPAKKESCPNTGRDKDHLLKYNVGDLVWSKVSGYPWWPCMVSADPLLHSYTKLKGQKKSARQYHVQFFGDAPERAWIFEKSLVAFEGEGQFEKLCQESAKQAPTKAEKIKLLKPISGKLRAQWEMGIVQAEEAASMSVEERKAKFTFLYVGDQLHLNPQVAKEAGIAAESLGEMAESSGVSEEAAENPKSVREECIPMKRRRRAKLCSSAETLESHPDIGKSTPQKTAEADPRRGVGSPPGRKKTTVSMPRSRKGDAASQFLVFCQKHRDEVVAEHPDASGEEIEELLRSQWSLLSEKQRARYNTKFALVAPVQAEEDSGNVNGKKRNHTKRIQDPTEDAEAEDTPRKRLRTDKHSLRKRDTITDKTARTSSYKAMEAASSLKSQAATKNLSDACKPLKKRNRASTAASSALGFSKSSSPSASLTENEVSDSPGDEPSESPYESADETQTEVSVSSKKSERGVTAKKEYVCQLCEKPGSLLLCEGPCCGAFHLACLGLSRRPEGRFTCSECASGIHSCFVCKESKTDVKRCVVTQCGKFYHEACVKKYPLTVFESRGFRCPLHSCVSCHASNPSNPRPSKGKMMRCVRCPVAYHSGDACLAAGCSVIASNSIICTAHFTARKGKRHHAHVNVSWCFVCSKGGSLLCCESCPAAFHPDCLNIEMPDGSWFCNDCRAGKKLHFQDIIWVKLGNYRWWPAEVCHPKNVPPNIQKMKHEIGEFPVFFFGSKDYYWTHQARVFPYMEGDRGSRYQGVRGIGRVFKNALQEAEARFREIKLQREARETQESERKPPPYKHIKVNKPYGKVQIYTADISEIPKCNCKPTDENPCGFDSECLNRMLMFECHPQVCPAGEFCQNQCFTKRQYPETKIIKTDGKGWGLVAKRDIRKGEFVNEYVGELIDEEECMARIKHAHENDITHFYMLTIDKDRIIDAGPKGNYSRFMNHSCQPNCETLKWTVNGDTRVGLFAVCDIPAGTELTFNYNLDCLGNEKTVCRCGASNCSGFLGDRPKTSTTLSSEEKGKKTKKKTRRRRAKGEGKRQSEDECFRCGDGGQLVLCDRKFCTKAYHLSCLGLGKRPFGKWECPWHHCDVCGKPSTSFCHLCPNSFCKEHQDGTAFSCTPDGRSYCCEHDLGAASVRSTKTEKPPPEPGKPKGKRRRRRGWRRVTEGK

[4] = mouse fibroblast viability loss – cell-based, cherry-pick samples, set 2, cytotoxicity control for T. cruzi growth inhibitor project, dose response (AID 651817); format: functional; settings: NIH3T3
[5] = Counterscreen for activators of the function of SWI/SNF related, matrix associated, actin dependent regulator of chromatin, subfamily a, member 2 (SMARCA2, BRM): Luminescence-based cell-based high throughput dose response assay to identify non-selective compounds using the VP16 reporter assay.; format: functional
[6] = molecular target: SWI/SNF-related matrix-associated actin-dependent regulator of chromatin subfamily A member 2 (Homo sapiens, UniProt P51531); test: Luminescence-based cell-based high throughput dose response assay to identify activators of the function of SWI/SNF related, matrix associated, actin dependent regulator of chromatin, subfamily a, member 2 (SMARCA2, BRM).; format: functional
[7] = CMV-driven luciferase expression suppression in HEK293 – cell-based, luminescence, dry powder, counter-screen for Pax8 inhibitor project, dose response (AID 743020); format: functional
[8] = molecular target: T2, Sentrin-specific protease 8 (Homo sapiens, UniProt Q96LD8); format: functional
T2 sequence (Q96LD8 whole entry): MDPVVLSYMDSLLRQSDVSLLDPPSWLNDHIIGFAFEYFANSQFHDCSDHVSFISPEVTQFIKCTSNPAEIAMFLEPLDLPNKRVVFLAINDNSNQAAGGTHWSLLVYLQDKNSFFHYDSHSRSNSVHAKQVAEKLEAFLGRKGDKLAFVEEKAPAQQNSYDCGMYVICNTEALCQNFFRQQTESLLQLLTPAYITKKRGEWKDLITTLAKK

[9] = molecular target: T3, Probable nicotinate-nucleotide adenylyltransferase (Staphylococcus aureus (strain N315), UniProt P65502); format: functional, Staphylococcus aureus subsp. aureus N315; settings: read-out: IC50_Mean;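 for IC50 Mean: confirmatory dose-response retesting of NadD inhibitor hits first found in an ultra-high-throughput screen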
T3 sequence (P65502 whole entry): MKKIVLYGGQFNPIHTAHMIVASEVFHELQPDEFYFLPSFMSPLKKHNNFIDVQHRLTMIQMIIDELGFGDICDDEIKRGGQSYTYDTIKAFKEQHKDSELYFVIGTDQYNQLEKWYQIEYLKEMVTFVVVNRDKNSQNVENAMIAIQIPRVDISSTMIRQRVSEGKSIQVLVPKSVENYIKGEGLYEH

[10] = molecular target: T4, Apoptotic protease-activating factor 1 (Homo sapiens, UniProt O14727); format: functional
T4 sequence (O14727 whole entry): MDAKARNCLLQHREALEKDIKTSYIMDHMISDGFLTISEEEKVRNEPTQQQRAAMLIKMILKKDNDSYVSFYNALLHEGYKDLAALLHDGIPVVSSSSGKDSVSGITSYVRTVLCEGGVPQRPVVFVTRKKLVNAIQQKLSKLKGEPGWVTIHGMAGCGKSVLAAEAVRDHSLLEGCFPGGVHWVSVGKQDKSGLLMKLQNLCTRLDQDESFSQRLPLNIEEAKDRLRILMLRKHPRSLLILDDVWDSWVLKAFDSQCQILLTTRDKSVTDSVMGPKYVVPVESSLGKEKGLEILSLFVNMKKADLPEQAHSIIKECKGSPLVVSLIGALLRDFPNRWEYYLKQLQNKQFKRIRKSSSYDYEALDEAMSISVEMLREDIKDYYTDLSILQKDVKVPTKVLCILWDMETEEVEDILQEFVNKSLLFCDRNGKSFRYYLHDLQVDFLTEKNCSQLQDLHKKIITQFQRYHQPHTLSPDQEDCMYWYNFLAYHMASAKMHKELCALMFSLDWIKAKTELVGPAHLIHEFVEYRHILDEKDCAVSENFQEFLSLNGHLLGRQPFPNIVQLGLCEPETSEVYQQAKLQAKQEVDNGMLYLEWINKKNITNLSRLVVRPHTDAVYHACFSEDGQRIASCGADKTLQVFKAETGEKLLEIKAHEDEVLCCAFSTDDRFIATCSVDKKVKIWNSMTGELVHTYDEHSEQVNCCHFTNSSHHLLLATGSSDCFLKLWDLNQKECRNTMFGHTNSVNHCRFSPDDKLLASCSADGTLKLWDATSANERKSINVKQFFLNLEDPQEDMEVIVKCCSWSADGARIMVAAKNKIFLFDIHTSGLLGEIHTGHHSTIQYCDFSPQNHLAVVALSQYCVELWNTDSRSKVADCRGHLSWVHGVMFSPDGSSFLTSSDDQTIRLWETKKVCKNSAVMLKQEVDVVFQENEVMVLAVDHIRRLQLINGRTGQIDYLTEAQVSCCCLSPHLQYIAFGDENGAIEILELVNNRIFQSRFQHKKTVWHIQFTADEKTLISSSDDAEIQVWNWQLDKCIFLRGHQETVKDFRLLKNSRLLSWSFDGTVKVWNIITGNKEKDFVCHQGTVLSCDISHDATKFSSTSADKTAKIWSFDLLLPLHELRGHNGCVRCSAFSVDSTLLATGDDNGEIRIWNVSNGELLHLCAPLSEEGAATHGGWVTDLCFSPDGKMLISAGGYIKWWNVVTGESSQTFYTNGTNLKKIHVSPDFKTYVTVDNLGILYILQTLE

[11] = molecular target: T2, Sentrin-specific protease 8; format: functional; remark: listed apart in the source
[12] = molecular target: T3, Probable nicotinate-nucleotide adenylyltransferase; format: functional, Staphylococcus aureus subsp. aureus N315
[13] = molecular target: Beta-lactamase (Salmonella choleraesuis (strain SC-B67), UniProt Q5J463); test: Epi-absorbance-based counterscreen for selective VIM-2 inhibitors: dose response biochemical high throughput screening assay to identify inhibitors of TEM-1 serine-beta-lactamase.
Beta-lactamase (Salmonella choleraesuis (strain SC-B67), UniProt Q5J463), sequence (Q5J463 whole entry): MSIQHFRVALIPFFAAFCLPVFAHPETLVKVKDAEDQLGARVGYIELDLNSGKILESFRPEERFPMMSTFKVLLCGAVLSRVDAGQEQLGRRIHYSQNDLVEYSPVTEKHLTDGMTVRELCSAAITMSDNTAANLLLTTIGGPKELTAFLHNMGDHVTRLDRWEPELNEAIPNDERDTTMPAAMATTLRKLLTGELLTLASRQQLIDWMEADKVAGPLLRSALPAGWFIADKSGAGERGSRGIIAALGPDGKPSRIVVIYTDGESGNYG

[14] = molecular target: T5, Heat shock factor protein 1 (Mus musculus, UniProt P38532); test: enhancement of HSF1-driven luciferase signal – cell-based, NIH3T3, luminescence, dose retest, confirmation (AID 435004); format: functional;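 note: stress induced by proteasome inhibitor MG132 added 30 min after compound; luciferase reporter driven by HSF1 response element in NIH3T3 cells; actives raise luminescence as potentiators of the MG132 stress response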
T5 sequence (P38532 whole entry): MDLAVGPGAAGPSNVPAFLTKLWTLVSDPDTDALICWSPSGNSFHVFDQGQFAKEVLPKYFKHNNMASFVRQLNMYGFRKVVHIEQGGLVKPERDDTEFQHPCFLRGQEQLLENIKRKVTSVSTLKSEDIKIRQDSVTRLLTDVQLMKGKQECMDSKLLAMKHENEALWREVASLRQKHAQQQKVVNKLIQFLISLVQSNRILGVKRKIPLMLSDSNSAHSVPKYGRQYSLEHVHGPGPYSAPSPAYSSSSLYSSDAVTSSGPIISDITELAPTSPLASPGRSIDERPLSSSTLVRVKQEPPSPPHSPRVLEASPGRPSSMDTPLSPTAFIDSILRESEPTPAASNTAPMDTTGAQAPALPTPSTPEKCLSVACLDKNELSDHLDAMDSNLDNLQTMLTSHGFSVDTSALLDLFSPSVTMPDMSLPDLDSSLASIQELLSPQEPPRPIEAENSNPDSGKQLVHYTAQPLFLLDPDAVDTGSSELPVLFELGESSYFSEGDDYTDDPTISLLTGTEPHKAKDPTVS

[15] = molecular target: T6, Beta-lactamase (Pseudomonas aeruginosa, UniProt Q79MP6); test: […] counterscreen for selective VIM-2 inhibitors: dose response biochemical high throughput screening assay to identify inhibitors of IMP-1 metallo-beta-lactamase.
T6 sequence (Q79MP6 whole entry): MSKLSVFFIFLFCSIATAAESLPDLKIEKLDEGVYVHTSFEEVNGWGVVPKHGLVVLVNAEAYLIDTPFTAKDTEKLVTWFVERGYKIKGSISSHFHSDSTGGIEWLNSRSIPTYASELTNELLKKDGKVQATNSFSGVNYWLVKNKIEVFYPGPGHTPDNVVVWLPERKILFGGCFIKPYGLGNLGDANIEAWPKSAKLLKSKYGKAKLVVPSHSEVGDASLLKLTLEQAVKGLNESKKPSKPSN

[16] = molecular target: T6, Beta-lactamase; test: inhibition of IMP-1 beta-lactamase activity – biochemical, epi-absorbance, selectivity assay for VIM-2 inhibitor project, dose response (AID 1920)
[17] = off-target signal loss in HeLa-CEM21 co-culture – HeLa F-luc CTL cells, cherry-picked, counter-screen for HIV-1 Env fusion inhibitor project, dose response (AID 652040); format: functional, cell-based;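 note: potency for signal decrease marking cytotoxic or nonspecific inhibition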
[18] = blockers of HIV-1 ZM109 envelope-driven cell-cell fusion – HeLa effector, CEM target cells, luciferase, cherry-pick, dose response (AID 652058); format: functional, cell-based;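 note: luciferase signal from HIV-1 Env mediated cell-cell fusion of effector and target cells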
[19] = viability loss in CEM21 cells – cell-based, CellTiter-Glo luminescence, cherry-picked, cytotoxicity control for viral fusion inhibitor project, dose response (AID 652042); format: functional;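 note: potency for signal decrease meaning cytotoxicity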
[20] = blockers of HIV-1 envelope-mediated cell-cell fusion – cherry-pick, dose response (AID 652057); format: functional, cell-based
[21] = HIV-1 AD8 envelope cell-cell fusion blockers – cherry-pick, dose response (AID 652062); format: functional, cell-based;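 note: luciferase signal from cell-cell fusion driven by HIV-1 clade B AD8 Env; potency is for inhibitors of fusion seen as a drop in luminescence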
[22] = molecular target: Cytochrome P450 3A4 (Homo sapiens, UniProt P08684);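 note: CYP3A4 tested as one member of a cytochrome P450 panel screen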
Cytochrome P450 3A4, sequence (P08684 whole entry): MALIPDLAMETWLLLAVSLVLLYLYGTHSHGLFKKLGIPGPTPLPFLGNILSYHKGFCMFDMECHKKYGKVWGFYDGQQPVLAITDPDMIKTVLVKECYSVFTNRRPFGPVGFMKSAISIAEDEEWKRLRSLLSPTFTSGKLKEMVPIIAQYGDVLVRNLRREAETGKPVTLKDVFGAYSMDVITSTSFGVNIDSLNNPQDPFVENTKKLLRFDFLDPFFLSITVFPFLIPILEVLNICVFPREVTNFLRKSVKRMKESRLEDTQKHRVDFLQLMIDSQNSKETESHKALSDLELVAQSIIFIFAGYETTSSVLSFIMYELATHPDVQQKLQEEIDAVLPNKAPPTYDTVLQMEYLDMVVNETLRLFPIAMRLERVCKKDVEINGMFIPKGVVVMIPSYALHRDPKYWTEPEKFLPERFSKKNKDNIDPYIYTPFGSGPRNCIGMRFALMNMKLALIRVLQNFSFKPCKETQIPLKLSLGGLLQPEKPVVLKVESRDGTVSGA

[23] = molecular target: T7, Fatty acid synthase (Homo sapiens, UniProt P49327); test: inhibition of human FAS-TE enzyme activity – biochemical, kinetic fluorescence intensity, dose response (AID 624326); format: functional;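 note: rate of fluorescence rise from hydrolysis of a fluorogenic O-methyl fluorescein ester substrate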
T7 sequence (P49327 whole entry): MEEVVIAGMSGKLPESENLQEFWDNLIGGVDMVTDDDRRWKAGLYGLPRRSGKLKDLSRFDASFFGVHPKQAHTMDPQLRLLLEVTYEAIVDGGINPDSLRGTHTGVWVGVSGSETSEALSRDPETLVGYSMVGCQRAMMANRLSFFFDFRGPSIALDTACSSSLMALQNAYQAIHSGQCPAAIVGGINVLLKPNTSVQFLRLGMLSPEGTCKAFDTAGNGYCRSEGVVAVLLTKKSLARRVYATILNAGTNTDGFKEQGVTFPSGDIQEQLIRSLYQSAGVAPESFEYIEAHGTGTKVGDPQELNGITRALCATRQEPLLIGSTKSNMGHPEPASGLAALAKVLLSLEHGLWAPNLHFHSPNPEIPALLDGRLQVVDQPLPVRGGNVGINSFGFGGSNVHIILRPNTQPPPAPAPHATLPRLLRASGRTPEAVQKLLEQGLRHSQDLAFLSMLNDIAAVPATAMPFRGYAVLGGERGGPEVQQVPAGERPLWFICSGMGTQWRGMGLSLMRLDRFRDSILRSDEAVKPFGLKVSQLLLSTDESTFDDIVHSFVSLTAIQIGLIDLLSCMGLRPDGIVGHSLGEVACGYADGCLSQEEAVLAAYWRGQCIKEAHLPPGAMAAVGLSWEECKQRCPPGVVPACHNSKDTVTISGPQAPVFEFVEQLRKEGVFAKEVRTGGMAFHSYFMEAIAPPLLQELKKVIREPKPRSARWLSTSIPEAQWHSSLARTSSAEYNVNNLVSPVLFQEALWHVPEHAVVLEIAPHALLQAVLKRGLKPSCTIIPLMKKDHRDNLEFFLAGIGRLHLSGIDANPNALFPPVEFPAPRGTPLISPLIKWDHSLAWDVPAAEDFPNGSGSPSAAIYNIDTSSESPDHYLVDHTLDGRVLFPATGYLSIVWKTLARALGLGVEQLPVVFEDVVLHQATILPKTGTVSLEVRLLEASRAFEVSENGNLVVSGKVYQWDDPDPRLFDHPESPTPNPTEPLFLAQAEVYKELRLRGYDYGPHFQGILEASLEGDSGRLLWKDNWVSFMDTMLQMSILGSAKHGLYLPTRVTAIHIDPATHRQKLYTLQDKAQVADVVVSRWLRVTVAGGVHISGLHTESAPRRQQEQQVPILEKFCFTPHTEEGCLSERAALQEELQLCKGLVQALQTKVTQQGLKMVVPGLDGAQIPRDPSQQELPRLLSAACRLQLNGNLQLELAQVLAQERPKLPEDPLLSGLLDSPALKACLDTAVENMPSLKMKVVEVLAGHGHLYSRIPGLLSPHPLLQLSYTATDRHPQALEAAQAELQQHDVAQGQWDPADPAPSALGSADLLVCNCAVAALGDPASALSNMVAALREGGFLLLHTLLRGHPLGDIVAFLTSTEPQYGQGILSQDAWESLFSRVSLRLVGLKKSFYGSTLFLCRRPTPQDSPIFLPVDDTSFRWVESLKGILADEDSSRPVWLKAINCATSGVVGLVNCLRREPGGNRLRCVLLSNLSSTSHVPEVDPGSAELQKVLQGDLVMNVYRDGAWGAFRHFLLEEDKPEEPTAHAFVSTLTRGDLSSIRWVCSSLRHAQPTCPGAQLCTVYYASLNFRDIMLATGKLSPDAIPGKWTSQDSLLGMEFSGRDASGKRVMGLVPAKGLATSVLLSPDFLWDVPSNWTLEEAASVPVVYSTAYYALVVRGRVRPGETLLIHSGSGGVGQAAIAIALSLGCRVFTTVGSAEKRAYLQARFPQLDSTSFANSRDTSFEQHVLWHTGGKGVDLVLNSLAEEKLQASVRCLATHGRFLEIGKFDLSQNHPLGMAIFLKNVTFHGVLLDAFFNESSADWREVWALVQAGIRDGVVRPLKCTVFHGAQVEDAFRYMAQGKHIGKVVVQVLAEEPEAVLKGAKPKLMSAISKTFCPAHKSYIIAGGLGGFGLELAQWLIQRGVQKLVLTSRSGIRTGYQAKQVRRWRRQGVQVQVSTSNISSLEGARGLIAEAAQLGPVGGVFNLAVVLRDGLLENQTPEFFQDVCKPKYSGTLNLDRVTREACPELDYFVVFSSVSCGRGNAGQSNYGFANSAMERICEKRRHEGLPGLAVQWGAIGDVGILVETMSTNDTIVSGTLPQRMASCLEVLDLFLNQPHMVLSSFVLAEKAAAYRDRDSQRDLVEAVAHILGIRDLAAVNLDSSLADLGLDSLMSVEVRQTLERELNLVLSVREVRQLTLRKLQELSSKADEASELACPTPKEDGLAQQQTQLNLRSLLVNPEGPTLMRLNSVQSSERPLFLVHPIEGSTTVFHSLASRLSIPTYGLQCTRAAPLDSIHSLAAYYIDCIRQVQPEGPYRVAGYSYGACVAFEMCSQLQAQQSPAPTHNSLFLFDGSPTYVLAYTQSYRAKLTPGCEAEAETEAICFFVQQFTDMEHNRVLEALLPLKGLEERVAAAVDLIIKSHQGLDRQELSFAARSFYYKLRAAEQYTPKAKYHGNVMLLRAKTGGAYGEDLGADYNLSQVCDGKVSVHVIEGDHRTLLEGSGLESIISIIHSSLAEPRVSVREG

[24] = molecular target: T7, Fatty acid synthase; test: inhibition of human FAS-TE enzyme activity – biochemical, endpoint fluorescence intensity, uHTS hits, dose response (AID 624327); format: functional;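 note: fluorescence from hydrolysis of an O-methyl fluorescein acyl ester substrate by the enzyme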

Albumin, sequence (P02769 whole entry): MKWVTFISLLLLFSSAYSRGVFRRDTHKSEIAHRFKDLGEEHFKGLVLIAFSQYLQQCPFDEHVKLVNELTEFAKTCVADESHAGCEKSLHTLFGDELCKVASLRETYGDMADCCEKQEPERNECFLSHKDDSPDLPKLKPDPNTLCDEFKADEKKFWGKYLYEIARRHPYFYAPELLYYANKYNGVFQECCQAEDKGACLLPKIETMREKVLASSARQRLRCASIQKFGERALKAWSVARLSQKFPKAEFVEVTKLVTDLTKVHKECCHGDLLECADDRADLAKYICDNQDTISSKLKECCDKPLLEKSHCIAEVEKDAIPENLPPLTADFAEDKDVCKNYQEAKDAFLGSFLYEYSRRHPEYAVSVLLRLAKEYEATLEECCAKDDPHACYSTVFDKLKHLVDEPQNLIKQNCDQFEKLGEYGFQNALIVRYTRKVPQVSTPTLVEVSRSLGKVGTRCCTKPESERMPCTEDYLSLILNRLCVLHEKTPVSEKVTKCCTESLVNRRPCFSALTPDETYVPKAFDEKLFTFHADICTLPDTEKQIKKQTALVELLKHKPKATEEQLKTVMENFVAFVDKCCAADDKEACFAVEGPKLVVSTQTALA

COc1cc(Br)cc2cc(C(=O)N3CCN(C(=O)c4ccco4)CC3)c(=O)oc12
IC50 [1]: > 94.1 µM (inactive)

Cc1c(CC(=O)N2CCN(C(=O)C3COc4ccccc4O3)CC2)c(=O)oc2c(O)c(O)ccc12 (centres undefined)
IC50 [1]: > 94.1 µM (inactive) | IC50 [2]: 2.43 µM (active) | AC50 [3]: 3.53 µM (active)

Cc1ccc(S(=O)(=O)Nc2ccc3c(c2)CC(=O)N([C@@H](C)CO)C[C@@H](C)[C@@H](CN(C)S(=O)(=O)c2ccc(Cl)cc2)O3)cc1
AC50 [4]: 35 µM (active)

CCCCCCN[C@H]1CCC2C3CC=C4C[C@@H](O)CC[C@]4(C)C3CC[C@@]21C (some centres undefined)
EC50 [5]: > 91.2 µM (inactive) | EC50 [6]: > 91.2 µM (inactive)

C[C@@H]1CN([C@@H](C)CO)C(=O)CCCn2nncc2CO[C@H]1CN(C)S(=O)(=O)c1ccc(Cl)cc1
AC50 [7]: < 1 µM (active)

Cc1nn(-c2ccc(Cl)cc2)c(O)c1C(c1ccccc1O)c1c(C)[nH]n(-c2ccc(Cl)cc2)c1=O (centres undefined)
IC50 [8]: 8.38 µM (active) | IC50 [9]: 21.1 µM (active) | IC50 [10]: 13.3 µM (active) | IC50 [11]: 32.9 µM (active) | IC50 [12]: 6.68 µM (active)

CCCc1cc(=O)oc2c3c(cc(OCC(=O)N[C@@H](C)C(=O)O)c12)OC(C)(C)CC3
IC50 [13]: > 59.6 µM (inactive) | EC50 [14]: > 260 µM (inactive) | IC50 [15]: > 59.6 µM (inactive) | IC50 [16]: > 59.6 µM (inactive)

NC(CCc1ccccc1)c1csc(Nc2ccccn2)n1 (centres undefined)
AC50 [17]: 3.22 µM (active) | AC50 [18]: 7.52 µM (active) | AC50 [19]: 38.1 µM (active) | AC50 [20]: 6.61 µM (active) | AC50 [21]: 22.6 µM (active)

C[C@H](CO)N1C[C@H](C)[C@@H](CN(C)Cc2ccc(Cl)c(Cl)c2)Oc2ccc(NS(=O)(=O)c3ccc(F)cc3)cc2CC1=O
AC50 [4]: 10.6 µM (active)

O=S1(=O)CCN(c2ccccc2CC(c2c[nH]c3ccccc23)c2c[nH]c3ccccc23)CC1
AC50 [17]: 0.555 µM (active) | AC50 [18]: < 0.26 µM (active) | AC50 [19]: 24.6 µM (active) | AC50 [22]: 2.51 µM (inconclusive) | AC50 [20]: < 0.26 µM (active) | AC50 [21]: 1.06 µM (active)

O=C(CSc1nnc(NC(=O)c2ccccc2F)s1)NCc1ccc(F)cc1
IC50 [13]: > 59.6 µM (inactive) | IC50 [15]: > 59.6 µM (inactive) | IC50 [16]: > 59.6 µM (inactive)

COc1ccc(/C=N\NC(=O)CNC(=O)C(c2ccccc2)c2ccccc2)cc1[N+](=O)[O-]
IC50 [23]: 12.3 µM (active) | IC50 [24]: 16.6 µM (active)
